Laboratory results reported in US20070287672A1, “Macromolecular Gsh-Activiated Glyoxylase I Inhibitors” (priority 2004, published 2007).

How the values were obtained:
[1] = tested on: murine leukemia L1210 cells; conditions: cited from earlier work; for IC50: diethyl ester prodrugs, after 72 hours of incubation, read-out: IC50, growth inhibition of L1210 cells in culture
[2] = target: T1, bovine liver GlxII (Bos taurus, UniProt Q3B7M2); conditions: cited from earlier work
T1 construct: host or cells: bovine liver

[3] = tested on: B16 melanotic melanoma; conditions: intravenous administration, tumor-bearing mice; cited from earlier work
[4] = intravenous administration, tumor-bearing mice; cited from earlier work
[5] = tested on: HT29 human colon tumors; conditions: intravenous administration, tumor-bearing mice; cited from earlier work
[6] = tested on: PC3 prostate tumors; conditions: intravenous administration, tumor-bearing mice; cited from earlier work
[7] = tested on: several different tumor cell lines; conditions: in vitro; cited from earlier work
[8] = potassium phosphate buffer, 25° C., cited from earlier work
[9] = tested on: Murine B16 melanotic melanoma; assay: In vitro cytotoxicity, growth inhibition of B16 melanotic melanoma; type: cell-based; conditions: 72 hours
Description: Murine B16 melanotic melanoma was obtained from the DCT Tumor Repository (NCI-Cancer Research and Development Center, Frederick, Md.) and was maintained in RPMI 1640 medium containing L-glutamate (Gibco BRL, Gaithersburg, Md.), supplemented with 10% heat-inactivated fetal calf serum and gentamycin (10 μg/mL), under 37° C. humidified air containing 5% CO2. Under these conditions B16 cells have a doubling time of about 26 hours. For the toxicity studies, cells in logarithmic growth were introduced into 24 well plates at a density of 2×10^4 cells/ml in the absence and presence of drug spanning the IC50 values.
After 72 hours, the cells were washed with Hank's balanced salt solution without Ca^2+, treated with trypsin for 10 minutes at 37° C., concentrated by centrifugation and cell densities determined with a Coulter Counter. Cell viabilities were determined by the trypan blue exclusion method (Kaltenbach et al, Exp. Cell. Res. 15:112-117 (1958)).
Reported IC50 values (mean ±standard deviation of triplicate determinations carried out in three separate assays on different days) were calculated using the Hill equation and the program ADAPT (D'Argenio and Schumitzky, Comput. Methods Programs Biomed. 9:115-134 (1979)).

## CCOC(=O)CNC(=O)C(CSC(=O)N(O)c1ccc(Br)cc1)NC(=O)CCC(N)C(=O)OCC (centres unmarked) [BHG(Et)2]
[1]
  IC50: 16 µM

## N[C@@H](CCC(=O)N[C@@H](CSC(=O)N(O)c1ccc(Br)cc1)C(=O)NCC(=O)O)C(=O)O [BHG, S—(N-p-bromophenyl-N-hydroxycarbamoyl)glutathione]
[2]
  substrate for bovine liver GlxII: substrates for bovine liver GlxII

## CCOC(=O)CNC(=O)[C@H](CSC(=O)N(O)c1ccc(Cl)cc1)NC(=O)CC[C@H](N)C(=O)OCC [CHG(Et)2]
[3]
  inhibition of tumor growth, B16 melanotic melanoma: inhibits the growth
[4]
  side effects in short term efficacy studies: did not detect any significant side effects
  tissue distribution of the prodrug: appearance of the prodrug in all major organs
[5]
  inhibition of tumor growth, HT29 human colon tumors: inhibits the growth
[1]
  IC50: 5 µM
[1]; in culture
  toxicity to L1210 cells versus normal splenic lymphocytes: significantly more toxic to murine leukemia L1210 cells than to normal splenic lymphocytes
[6]
  inhibition of tumor growth, PC3 prostate tumors: inhibits the growth

## N[C@@H](CCC(=O)N[C@@H](CSC(=O)N(O)c1ccc(Cl)cc1)C(=O)NCC(=O)O)C(=O)O [CHG, S—(N-p-chlorophenyl-N-hydroxycarbamoyl)glutathione]
[2]
  substrate for bovine liver GlxII: substrates for bovine liver GlxII

## CC[S+]([O-])C(=O)N(O)c1ccc(Cl)cc1 (centres unmarked) [Compound 2, S—(N-4-chlorophenyl-N-hydroxycarbamoyl)ethyl sulfoxide]
[7]
  cytostatic and cytotoxic activity on tumor cell lines: cytostatic and cytotoxic
[8]; 0.1 M (pH 7.5)
  rate constant k for reaction of GSH with the simple sulfoxide: 30.7 ± 1.2 M⁻¹ s⁻¹
[9]
  IC50 value relative to that of HPMA-8-sulfoxide (P1), fold lower: five to ten-fold lower

## CCC[S+]([O-])C(=O)N(O)c1ccc(Cl)cc1 (centres unmarked) [Compound 2a, S—(N-4-Chlorophenyl-N-hydroxycarbamoyl)propyl sulfoxide]
[9]
  IC50 value relative to that of HPMA-8-sulfoxide (P1), fold lower: five to ten-fold lower

## CCCC[S+]([O-])C(=O)N(O)c1ccc(Cl)cc1 (centres unmarked) [Compound 2b, S—(N-4-Chlorophenyl-N-hydroxycarbamoyl)butyl sulfoxide]
[9]
  IC50 value relative to that of HPMA-8-sulfoxide (P1), fold lower: five to ten-fold lower

## C/C=C/C(=O)OCC1=CCCCC1=O [Compound 3, 2-crotonyloxymethyl-2-cyclohexenone]
[8]; 0.1 M (pH 6.5)
  rate constant k for reaction of GSH with the crotonate ester: 1.13 ± 0.017 M⁻¹ s⁻¹
[9]
  IC50 value relative to that of HPMA-7 (P4), fold lower: over 7000 fold

## CCOC(=O)CNC(=O)C(CSC(=O)N(O)c1ccccc1)NC(=O)CCC(N)C(=O)OCC (centres unmarked) [PHG(Et)2]
[1]
  IC50: 63 µM

## CN(O)C(=O)SC[C@H](NC(=O)CC[C@H](N)C(=O)O)C(=O)NCC(=O)O [S—(N-methyl-N-hydroxycarbamoyl)glutathione]
[2]
  substrate for bovine liver GlxII: substrates for bovine liver GlxII

## N[C@@H](CCC(=O)N[C@@H](CSC(=O)N(O)c1ccccc1)C(=O)NCC(=O)O)C(=O)O [S—(N-phenyl-N-hydroxycarbamoyl)glutathione]
[2]
  substrate for bovine liver GlxII: substrates for bovine liver GlxII
